The results in this text go back to US9573964B2, “Oxygen linked pyrimidine derivatives” (CTI BIOPHARMA CORP., priority 2005, dated 2017).

For one experiment, the target named is T1, CDK2/CyclinA (Homo sapiens, UniProt P24941).
T1 construct: purchased Invitrogen PV3267
As to the kind of experiment: In vitro kinase activity assay (PKLight), CDK2/Cyclin A. Format: biochemical. The following applies: 0.5 μM ATP. The procedure: (§1) The recombinant enzymes (CDK2/CyclinA, FLT3, JAK2 and JAK2 V617F) were purchased from Invitrogen (Cat #PV3267, 3182, 4210 and 4347 respectively). All assays were carried out in 384-well white microtiter plates using the PKLight assay system from Cambrex (East Rutherford, N.J.). This assay platform is essentially a luminometric assay for the detection of ATP in the reaction using a luciferase-coupled reaction. For CDK2/Cyclin A assay, the reaction mixture consisted of the following components in 25 μL assay buffer (50 mM Hepes pH 7.5, 10 mM MgCl2, 5 mM MnCl2, 5 mM BGP, 1 mM DTT, 0.1 mM sodium orthovanadate), 1.4 μg/mL of CDK2/Cyclin A complex, 0.5 μM of RbING substrate (Invitrogen, Cat #PV2939) and 0.5 μM of ATP. The compounds were tested at 8 concentrations prepared from 4-fold serial dilution starting at 10 μM. The reaction was incubated at room temperature for 2 hr. 13 μL of PKLight ATP detection reagent was added and the reaction was incubated for 10 min. Luminescence signals were detected on a multi-label plate reader (Victor^2 V 1420, Perkin-Elmer). The other kinase assays were identical except for the following differences in reagents. For FLT3 assays, the reaction contained 2.0 μg/mL FLT3 enzyme, 5 μM of poly(Glu,Tyr) substrate (Sigma, Cat #P0275) and 4 μM of ATP. For JAK2 assays, the reaction contained 0.6 μg/mL of JAK2 enzyme, 2 μM of poly(Glu,Ala,Tyr) substrate (Sigma, Cat #P3899) and 0.2 μM of ATP. For JAK2 V617F mutant assays, the reaction contained 8.0 μg/mL of JAK2 mutant enzyme, 2 μM of poly(Glu,Ala,Tyr) substrate (Sigma, Cat #P3899) and 0.2 μM of ATP. The analytical software, Prism 4.0 (GraphPad Software Pte Ltd) was used to generate IC50 values from the data.

The next experiment concerns the target T2, FLT3 (Homo sapiens, UniProt P36888).
T2 construct: purchased Invitrogen PV3182
T2 sequence (P36888 27-993): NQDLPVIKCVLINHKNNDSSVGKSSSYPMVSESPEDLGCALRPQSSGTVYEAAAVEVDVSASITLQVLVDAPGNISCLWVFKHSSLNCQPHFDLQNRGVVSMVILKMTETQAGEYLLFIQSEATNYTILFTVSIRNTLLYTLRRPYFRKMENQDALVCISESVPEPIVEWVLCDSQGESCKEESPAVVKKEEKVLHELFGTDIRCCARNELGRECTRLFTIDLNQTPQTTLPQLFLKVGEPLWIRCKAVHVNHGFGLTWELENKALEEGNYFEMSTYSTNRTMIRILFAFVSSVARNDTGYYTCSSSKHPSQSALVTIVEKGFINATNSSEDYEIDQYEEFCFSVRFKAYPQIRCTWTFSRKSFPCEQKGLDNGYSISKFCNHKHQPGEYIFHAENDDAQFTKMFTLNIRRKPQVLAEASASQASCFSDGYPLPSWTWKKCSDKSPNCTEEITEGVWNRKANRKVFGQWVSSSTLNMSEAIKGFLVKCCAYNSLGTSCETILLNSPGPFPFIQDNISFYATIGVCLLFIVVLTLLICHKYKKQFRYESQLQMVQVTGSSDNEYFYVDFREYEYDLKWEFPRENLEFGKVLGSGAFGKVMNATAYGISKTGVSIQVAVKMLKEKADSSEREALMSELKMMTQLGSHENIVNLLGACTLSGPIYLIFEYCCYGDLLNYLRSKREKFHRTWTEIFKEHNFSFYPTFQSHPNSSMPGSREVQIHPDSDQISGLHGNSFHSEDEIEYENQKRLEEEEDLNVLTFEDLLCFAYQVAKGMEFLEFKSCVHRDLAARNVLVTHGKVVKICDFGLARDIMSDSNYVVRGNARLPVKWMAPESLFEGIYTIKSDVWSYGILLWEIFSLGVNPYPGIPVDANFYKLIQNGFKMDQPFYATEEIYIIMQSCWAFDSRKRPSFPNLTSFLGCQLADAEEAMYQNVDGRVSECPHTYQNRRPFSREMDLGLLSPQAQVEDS
Nature of the experiment: In vitro kinase activity assay (PKLight), FLT3. Format: biochemical. The procedure:
as §1, with “All” for “The recombinant enzymes (CDK2/CyclinA, FLT3, JAK2 and JAK2 V617F) were purchased from Invitrogen (Cat #PV3267, 3182, 4210 and 4347 respectively). All”, “For JAK2 V617F mutant assays, the reaction contained 8.0 μg/mL of JAK2 mutant enzyme, 2 μM of poly(Glu,Ala,Tyr) substrate (Sigma, Cat #P3899) and 0.2 μM of ATP.” left out

A further experiment has as its target T3, JAK2 (Homo sapiens, UniProt O60674).
T3 construct: purchased Invitrogen PV4210
As to the kind of experiment: In vitro kinase activity assay (PKLight), JAK2. The format is biochemical. The procedure: as §1, with “All” for “The recombinant enzymes (CDK2/CyclinA, FLT3, JAK2 and JAK2 V617F) were purchased from Invitrogen (Cat #PV3267, 3182, 4210 and 4347 respectively). All”, “For JAK2 V617F mutant assays, the reaction contained 8.0 μg/mL of JAK2 mutant enzyme, 2 μM of poly(Glu,Ala,Tyr) substrate (Sigma, Cat #P3899) and 0.2 μM of ATP.” left out

Experiment [1] has as its system HL60 (acute myeloid leukemia cell line). Nature of the experiment: Cell-based proliferation assay for GI50, HL60. The conditions noted are these: Homo sapiens, HL-60; HL60 cells, 96 h treatment. The protocol:
(§2) Human cancer cell lines HL60 (acute myeloid leukemia cell line), Colo205 (colon adenocarcinoma cell line), HEL92.1.7 (erythroleukemia cell line) and MV4-11 (acute myeloid leukemia cell line) were obtained from ATCC. They were cultivated in the media according to the ATCC work instructions. Colo205 cells were seeded in 96-wells plate at 5000 cells per well. HEL92.1.7 and MV4-11 cells were seeded at 6000 cells per well while HL60 cells were seeded at 8000 cells per well in 96 well plate. The plates were incubated at 37° C., 5% CO2, for 24 h. Cells were treated with compounds at various concentrations for 96 h. Cell growth was then monitored using Celltiter96 Aqueous One Solution Cell Proliferation Assay from Promega (Madison Wis.). Dose response curves were plotted to determine GI50 values for the compounds using XL-fit (ID Business Solution, Emeryville, Calif.).

The subject of experiment [2] is HEL92.1.7 (erythroleukemia cell line). As to the kind of experiment: Cell-based proliferation assay for GI50, HEL92.1.7. The following applies: Homo sapiens, HEL 92.1.7; HEL92.1.7 cells, 96 h treatment. The procedure: as §2
For experiment [3], the system named is MV4-11 (acute myeloid leukemia cell line). Nature of the experiment: Cell-based proliferation assay for GI50, MV4-11. The following applies: Homo sapiens; MV4-11 cells, 96 h treatment. The protocol:
as §2

Experiment [4] relates to Colo205 (colon adenocarcinoma cell line). As to the kind of experiment: Cell-based proliferation assay for GI50, Colo205. The conditions noted are these: Homo sapiens, COLO 205; Colo205 cells, 96 h treatment. The protocol:
as §2

T3 sequence (O60674 whole entry): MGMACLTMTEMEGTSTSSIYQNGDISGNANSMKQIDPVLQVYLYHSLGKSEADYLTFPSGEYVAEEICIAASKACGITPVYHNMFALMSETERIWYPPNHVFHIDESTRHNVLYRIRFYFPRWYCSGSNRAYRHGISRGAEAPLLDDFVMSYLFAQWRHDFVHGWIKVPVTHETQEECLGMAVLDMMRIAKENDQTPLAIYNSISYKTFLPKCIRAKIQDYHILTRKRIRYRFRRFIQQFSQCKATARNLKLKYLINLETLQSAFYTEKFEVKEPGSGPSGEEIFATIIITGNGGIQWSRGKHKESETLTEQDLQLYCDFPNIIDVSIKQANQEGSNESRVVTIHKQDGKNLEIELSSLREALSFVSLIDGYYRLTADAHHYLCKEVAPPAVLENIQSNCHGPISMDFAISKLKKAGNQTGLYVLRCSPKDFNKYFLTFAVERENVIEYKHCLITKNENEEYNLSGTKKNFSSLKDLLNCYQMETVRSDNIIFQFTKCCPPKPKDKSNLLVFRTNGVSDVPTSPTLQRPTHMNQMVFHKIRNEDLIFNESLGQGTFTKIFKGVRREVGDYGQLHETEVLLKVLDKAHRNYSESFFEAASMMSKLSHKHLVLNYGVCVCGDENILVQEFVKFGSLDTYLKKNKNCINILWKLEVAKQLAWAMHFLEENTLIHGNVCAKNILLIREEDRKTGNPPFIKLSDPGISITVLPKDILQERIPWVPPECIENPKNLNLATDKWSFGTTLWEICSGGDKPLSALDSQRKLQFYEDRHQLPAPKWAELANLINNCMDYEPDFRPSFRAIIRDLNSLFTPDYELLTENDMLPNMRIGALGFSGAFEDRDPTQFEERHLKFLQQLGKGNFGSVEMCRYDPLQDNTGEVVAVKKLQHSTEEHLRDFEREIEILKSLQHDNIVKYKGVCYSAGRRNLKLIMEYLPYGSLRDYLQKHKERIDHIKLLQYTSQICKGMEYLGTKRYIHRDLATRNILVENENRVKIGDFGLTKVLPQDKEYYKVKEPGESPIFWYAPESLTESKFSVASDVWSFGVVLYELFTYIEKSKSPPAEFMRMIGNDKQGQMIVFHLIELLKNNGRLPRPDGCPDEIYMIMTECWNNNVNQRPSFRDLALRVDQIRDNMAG

As usually defined, the IC50 is the concentration that inhibits the measured activity by half. Lower therefore signals greater potency. Broadly, the GI50 is the concentration giving 50% growth inhibition. Lower therefore signals more potent growth inhibition. Take `C1=C/COCc2cc(ccc2OCCN2CCCC2)Nc2nccc(n2)-c2cc(co2)COC/1` [Compound 55]: the IC50 against CDK2/CyclinA was above 5 µM; against FLT3, at most 1 µM; against JAK2, at most 1 µM. In addition, the values for the GI50 in experiment [1], in experiment [2] and in experiment [3] were 1 to 5 µM, 1 to 5 µM and at most 1 µM, respectively.

On CDK2/CyclinA, `C1=C/COCc2cc(ccc2OCCN2CCCC2)Nc2nccc(n2)-c2cccc(c2)COC/1` [Compound 13] yielded an IC50 of 1 to 5 µM. For the same compound, the GI50 is at most 1 µM in experiment [1], 1 to 5 µM in experiment [4], 1 to 5 µM in experiment [2] and at most 1 µM in experiment [3].

As to `Fc1cc2cc(c1)-c1ccnc(n1)Nc1ccc(OCCN3CCCC3)c(c1)COC/C=C/CCO2` [Compound 36], the IC50 against CDK2/CyclinA is 1 to 5 µM; against FLT3 it was at most 1 µM; on JAK2 it was at most 1 µM. In addition, the results for the 50% growth inhibitory concentration (GI50) in experiment [1], in experiment [2] and in experiment [3] were at most 1 µM, 1 to 5 µM and at most 1 µM, respectively.

On to `C1=C/COCc2cc(ccc2OCCN2CCCC2)Nc2nccc(n2)-c2csc(c2)COC/1` [Compound 52], for which the IC50 at CDK2/CyclinA is above 5 µM; at FLT3 it was at most 1 µM; against JAK2, at most 1 µM. For the same compound, the GI50 in experiment [1], in experiment [2] and in experiment [3] was at most 1 µM in each case.

As to `CN1CCN(c2ccc3cc2COC/C=C/COCc2cccc(c2)-c2ccnc(n2)N3)CC1` [Compound 40], the IC50 on CDK2/CyclinA was above 5 µM; at FLT3 it was at most 1 µM; against JAK2 it was at most 1 µM. In addition, the GI50 in experiment [1], in experiment [2] and in experiment [3] was at most 1 µM throughout.

Consider `COc1ccc2cc1COC/C=C\COc1cccc(c1)-c1ccnc(n1)N2` [Compound 7], for which the results for the IC50 against CDK2/CyclinA, against FLT3 and on JAK2 were above 5 µM, at most 1 µM and above 5 µM, respectively. The GI50 in experiment [1] was at most 1 µM; in experiment [4], above 5 µM; in experiment [2], above 5 µM; in experiment [3], above 5 µM.

On to `C1=C2COC/C=C/COCc3cc(ccc3OCCN3CCCC3)Nc3nccc(n3)C(=C1)O2` [Compound 38], for which the IC50 against CDK2/CyclinA is above 5 µM; at FLT3, at most 1 µM; against JAK2, at most 1 µM. The GI50 in experiment [1] was at most 1 µM; in experiment [2], 1 to 5 µM; in experiment [3], at most 1 µM.

On to `C1=C/COCc2cc(ccc2OCCN2CCCC2)Nc2nccc(n2)-c2coc(c2)COC/1` [Compound 50], for which the IC50 against CDK2/CyclinA was above 5 µM; against FLT3, at most 1 µM; against JAK2, at most 1 µM. Besides, the GI50 is at most 1 µM in experiment [1], 1 to 5 µM in experiment [2] and at most 1 µM in experiment [3].

`c1cc2cc(c1)-c1ccnc(n1)Nc1ccc(OCCN3CCCC3)c(c1)COCC1CC1COC2` (stereo not drawn) [Compound 53]: the results for the IC50 against CDK2/CyclinA, against FLT3 and on JAK2 were 1 to 5 µM, at most 1 µM and at most 1 µM, respectively. Moreover, the values for the GI50 in experiment [1], in experiment [2] and in experiment [3] were at most 1 µM, 1 to 5 µM and at most 1 µM, respectively.

Take `C1=C/COCc2cc(ccc2N2CCOCC2)Nc2nccc(n2)-c2cccc(c2)COC/1` [Compound 33]: the results for the IC50 on CDK2/CyclinA, on FLT3 and against JAK2 were above 5 µM, at most 1 µM and at most 1 µM, respectively. Also, the GI50 in experiment [1] was 1 to 5 µM; in experiment [2], 1 to 5 µM; in experiment [3] it was at most 1 µM.

As to `Fc1ccc2cc1COC/C=C/COCc1cc(ccc1OCCN1CCCC1)Nc1nccc-2n1` [Compound 46], the IC50 is 1 to 5 µM on CDK2/CyclinA, at most 1 µM at FLT3 and at most 1 µM at JAK2. The figures for the GI50 in experiment [1], in experiment [2] and in experiment [3] were at most 1 µM, 1 to 5 µM and at most 1 µM, respectively.

`COc1ccc2cc1COC/C=C/COc1cccc(c1)-c1ccnc(n1)N2` [Compound 6]: the IC50 on CDK2/CyclinA, against FLT3 and on JAK2 was at most 1 µM each time. Also, the 50% growth inhibitory concentration (GI50) in experiment [1] and in experiment [4] was 1 to 5 µM throughout.

As to `C1=C/COCc2cc(ccc2OCCN2CCCC2)Nc2nccc(n2)-c2cncc(c2)COC/1` [Compound 56], the IC50 against CDK2/CyclinA was 1 to 5 µM; against FLT3 it was at most 1 µM; at JAK2, at most 1 µM. In addition, the GI50 in experiment [1] was at most 1 µM; in experiment [2], 1 to 5 µM; in experiment [3] it was at most 1 µM.

On to `C1=C2COC/C=C/COCc3cc(ccc3OCCN3CCCC3)Nc3nccc(n3)C(=C1)S2` [Compound 48], for which the IC50 is above 5 µM against CDK2/CyclinA, at most 1 µM at FLT3 and at most 1 µM against JAK2. In addition, the GI50 in experiment [1], in experiment [4], in experiment [2] and in experiment [3] was at most 1 µM in each case.

For the compound `COc1cc2cc(c1OCCN1CCCC1)COC/C=C/COCc1cccc(c1)-c1ccnc(n1)N2` [Compound 32], the IC50 against CDK2/CyclinA was 1 to 5 µM; at FLT3, at most 1 µM; against JAK2, at most 1 µM. Moreover, the GI50 was at most 1 µM in experiment [1], 1 to 5 µM in experiment [2] and at most 1 µM in experiment [3].
